Entries after “also recorded” stand apart in the source; their conditions may differ.
System: Cyp1b1^−/− Tyr^c−2J/c−2J (albino) double mutants
Test: L-DOPA supplementation via drinking water throughout ocular development; histologic and electron microscopic grading of angle dysgenesis
Assay type: in vivo, mice
Conditions: for developmental abnormalities in the iridocorneal angle / severe angle dysgenesis (histology): L-DOPA 1 mg/ml in drinking water from gestation until harvest at approximately 4 weeks
Description: Applicant hypothesized that tyrosinase might affect angle development through modulation of L-DOPA levels. Tyrosinase is a monooxygenase that converts tyrosine to L-DOPA and L-DOPA to dopaquinone. L-DOPA affects development and is the precursor of catecholamines, which are important developmental regulators (15-17). To investigate whether L-DOPA is a critical molecule in angle development, Applicant administered water containing L-DOPA or standard drinking water to Cyp1b1^-/- Tyr^c-2J/c-2J (albino) double mutants throughout ocular development [their mothers received this water throughout the period of in utero development (12)]. […] Despite the profound rescue in L-DOPA treated albino Cyp1b1^-/- mice, mild abnormalities of similar severity to those observed in pigmented Cyp1b1^-/- mice remained. […] These include genes that affect L-DOPA levels, affect the metabolism of L-DOPA to other developmentally important molecules or affect the signaling of these molecules in developmental/physiologic pathways. L-DOPA treatment-L-DOPA (dihydroxyphenylalanine, 15,431-8, Aldrich Chemical Company, Inc., Milwaukee, Wis.) was supplied to the animals via their drinking water at a concentration of 1 mg/ml (5, 6). L-DOPA was dissolved into acidic water (pH of 3) to avoid oxidation. Animals were either on L-DOPA for their entire gestation or started on L-DOPA at embryonic day E5.5 (prior to eye formation). Eyes were harvested at approximately 4 weeks of age and L-DOPA treatment was continued until the time of harvest. Freshly made L-DOPA water was supplied every three days. Histologic and electron microscopic analyses-Applicant fixed and processed eyes for plastic sectioning and electron microscopy as previously reported (1, 9). All tissues were harvested from mice at ages after angle formation. For light microscopy, eyes were […] sectioned and up to 56 sections were collected from each of 3 different ocular regions for all eyes. […] Collected regions included nasal lens periphery, central lens, and a region halfway between the lens center and the peripheral lens. Sections were stained with hematoxylin and eosin. Due to the potential for artifact in the delicate tissues analyzed abnormalities had to be present in multiple sections from the same region. Nine to twelve eyes were analyzed for each genotype on each genetic background. Applicant devised a grading scheme to allow comparison between different eyes. Applicant separately assessed the severity of defects affecting Schlemm's canal (SC), trabecular meshwork (TM) and creating synechiae. For each phenotype, Applicant graded 6 similarly spaced sections for each ocular region. Applicant graded the severity of abnormalities in both angles of a section. Thus, Applicant graded 36 angles (6 sections×2 angles×3 regions) from different ocular regions for each eye. Applicant designated a grade of 0, 1, 2, 3, or 4 (increasing in severity from 0 to 4, see below) to each phenotype for each angle. For an eye, the total grade could be any value between 0 and 144 (36 angles×4). […] To assess the difference in the severity of angle dysgenesis between the albino and pigmented eyes, Applicant graded approximately 10 eyes from mice of each Cyp1b1 and Foxc1 genotype. Due to the continuous nature of the grade, Applicant present the data as mean± SEM and compared genotypes using two tailed student t-tests. Applicant checked the consistency of the grading method by assessing 8 random eyes on a second occasion without knowledge of the initial grade. […]

N[C@@H](Cc1ccc(O)c(O)c1)C(=O)O [L-DOPA, 3,4-dihydroxyphenylalanine]
developmental abnormalities in the iridocorneal angle / severe angle dysgenesis (histology) (Cyp1b1^−/− Tyr^c−2J/c−2J mice, B6 background, versus untreated): alleviated; also recorded: prevent the severe angle dysgenesis
developmental abnormalities in the iridocorneal angle / severe angle dysgenesis (histology) (Cyp1b1^−/− Tyr^c−2J/c−2J mice, B6 background, versus untreated, listed as LDOPA): substantially prevented developmental abnormalities
ultrastructure of the trabecular meshwork (electron micrographs) (Cyp1b1^−/− Tyr^c−2J/c−2J mice, B6 background, L-DOPA 1 mg/ml in drinking water, versus untreated): rescues the ultrastructure of the trabecular meshwork
mean severity grades of developmental dysgenesis (Schlemm's canal, trabecular meshwork, synechiae) (Cyp1b1^−/− Tyr^c−2J/c−2J mice, L-DOPA 1 mg/ml in drinking water, grade 0-144 per eye, p<0.001 for all assessed phenotypes versus untreated): can be alleviated
abnormalities remaining after L-DOPA treatment (L-DOPA treated albino Cyp1b1^−/− mice, compared with pigmented Cyp1b1^−/− mice): mild abnormalities of similar severity to those observed in pigmented Cyp1b1^−/− mice remained

Source: patent publication US20040220270A1, “Methods and composition of treating glaucoma by modulating tyrosinase/L-DOPA pathway” (The Jackson Laboratory, priority 2003, published 2004)
